Results from patent publication US20200325505A1, “FILAMENTOUS FUNGI CAPABLE OF PRODUCING VERY LONG CHAIN FATTY ACIDS” (UT-Battelle, LLC, priority 2019, published 2020).
Where two headings read alike, the source gives them in different places. Residues, ends and D or L forms follow the SMILES beside them.

Tested on: Mortierella elongata AG77
Assay: Carbon source utilisation in Biolog 96-well plates, formazan formation after tetrazolium addition
Format: cell-based
Details: for Metabolized: Metabolized = more formazan formation than a control containing no carbon source, observed visually at 2 h, 24 h, 148 h; for Carbon sources that Mortierella elongata AG77 can metabolize: summary of Table 3
Description: Two 300 mL volumes of growth medium comprising 1 g/L KH2PO4, 1 g/L MgSO4 7H2O, 0.1 g/L CaCl2, 0.02 g/L FeNaEDTA, 0.1 g/L NaCl, and either 1 g/L NH4NO3 or 20 g/L sucrose were prepared. Acidity was adjusted to 5.5 using NaOH and volumes of growth medium were autoclaved 30 min at 121° C. to sterilize. Aliquots of 200 μL of carbon-free medium or nitrogen-free medium were pipetted into each well of a set of 96-well plates previously prepared with lyophilized putative carbon or nitrogen sources (Biolog Inc., Hayward, Calif.). Inocula were prepared by perforating a culture of Mortierella elongata AG77 grown on 20 g/L potato dextrose agar with a 3 mm diameter cork borer and separating the surface mycelial mat from the solid growth medium using tweezers. Each well was inoculated with one inoculum. Cultures were incubated at 21° C. for 24 hours to allow metabolic changes to stabilize, and then 100 μL of 3 g/L tetrazolium chloride in water was added to each well. Formazan formation was observed visually at 2 h, 24 h, and 148 h.
Conclusions were based on rate and intensity of formazan formation using the 3-4,5-dimethylthiazol-2-yl)-2,5-diphenyltetrazolium bromide (MTT) assay. “Metabolized” indicates more formazan formation than a control containing no carbon source, and “Toxic” indicates less formazan formation than a control containing no carbon source. “Metabolized” and “Toxic” assignments are mutually exclusive. In this example, a compound may be “Metabolized” or “Toxic,” but not both.

[1] = compound as carbon source, Toxic = less formazan formation than a control containing no carbon source

Molecule | Metabolized (compound as carbon source) | Toxic [1] | Carbon sources that Mortierella elongata AG77 can metabolize | Toxic
O=C(O)[C@H](O)[C@@H](O)[C@H](O)[C@H](O)CO [D-Gluconic Acid] | no | no | – | –
O=P(O)(O)O[C@H]1O[C@H](CO)[C@@H](O)[C@H](O)[C@H]1O [D-Glucose-1-Phosphate] | yes | – | can metabolize | –
O=C(O)C[C@H](O)C(=O)O [L-Malic Acid] | no | no | – | –
OC[C@H]1O[C@@H]2O[C@H]3[C@H](O)[C@@H](O)[C@@H](O[C@H]4[C@H](O)[C@@H](O)[C@@H](O[C@H]5[C@H](O)[C@@H](O)[C@@H](O[C@H]6[C@H](O)[C@@H](O)[C@@H](O[C@H]7[C@H](O)[C@@H](O)[C@@H](O[C@H]8[C@H](O)[C@@H](O)[C@@H](O[C@H]1[C@H](O)[C@H]2O)O[C@@H]8CO)O[C@@H]7CO)O[C@@H]6CO)O[C@@H]5CO)O[C@@H]4CO)O[C@@H]3CO [β-Cyclodextrin] | no | no | – | –
CCCC(=O)O [Butyric Acid] | no | – | – | no
O=C(O)Cc1ccc(O)cc1 [p-Hydroxy Phenyl Acetic Acid] | no | no | – | –
NCC(=O)N1CCC[C@H]1C(=O)O [Glycyl-L-Proline] (H-Gly-Pro-OH) | no | – | – | no
O=C[C@H](O)[C@@H](O)[C@@H](O)CO [L-Arabinose] | no | – | – | no
OC[C@@H](O)[C@@H](O)[C@H](O)[C@H](O)CO [D-Mannitol] | no | – | – | no
O=C[C@@H](O)[C@@H](O)[C@H](O)[C@H](O)CO [D-Mannose] | no | – | – | no
Nc1ncnc2c1ncn2C1CC(O)C(CO)O1 (stereo not shown) [2-Deoxy Adenosine] | no | no | – | –
Maltotriose | yes | no | can metabolize | –
CO[C@@H]1O[C@H](C(=O)O)[C@@H](O)[C@H](O)[C@H]1O [β-Methyl-D-Glucuronic Acid] | no | no | – | –
CC(=O)C(C)O (stereo not shown) [3-Hydroxy 2-Butanone] | no | no | – | –
C=C(CC(=O)O)C(=O)O [Itaconic Acid] | no | no | – | –
CCC(=O)O [Propionic Acid] | no | – | – | no
Gentiobiose | no | – | – | –
CCCCCC(=O)O [Caproic Acid] | no | no | – | –
O=C(O)C(O)C(O)C(=O)O (stereo not shown) [m-Tartaric Acid] | yes | – | can metabolize | –
O=C1O[C@H](CO)[C@@H](O)[C@H]1O [D-Ribono-1,4-Lactone] | no | no | – | –
O=C(O)C[C@@H](O)C(=O)O [D-Malic Acid] | no | no | – | –
O=C(CO)[C@@H](O)[C@H](O)[C@H](O)COP(=O)(O)O [D-Fructose-6-Phosphate] | yes | no | can metabolize | –
Mannan | – | – | – | no
Glycogen | – | – | – | no
CC(=O)C(C)=O [2,3-Butanedione] | no | no | – | –

Molecule | Metabolized (compound as carbon source) | Toxic [1] | Carbon sources that Mortierella elongata AG77 can metabolize | Toxic
CCC(C)N (stereo not shown) [Sec-Butylamine] | no | no | – | –
O=C(O)c1ccccc1O [2-Hydroxy Benzoic Acid] | no | – | – | –
O=C(O)CC(O)(CC(=O)O)C(=O)O [Citric Acid] | yes | – | can metabolize | –
O=C[C@H](O)[C@@H](O)[C@H](O)[C@H](O)COP(=O)(O)O [D-Glucose-6-Phosphate] | yes | – | can metabolize | no
OC[C@H]1O[C@H](O[C@H]2O[C@H](CO)[C@@H](O)[C@H](O)[C@H]2O)[C@H](O)[C@@H](O)[C@@H]1O [D-Trehalose] | yes | no | can metabolize | –
O=C1O[C@H]([C@@H](O)CO)[C@@H](O)[C@@H]1O [L-Galactonic Acid-γ-Lactone] | yes | no | can metabolize | –
O=C[C@@H](O)[C@H](O[C@@H]1O[C@H](CO)[C@H](O)[C@H](O)[C@H]1O)[C@H](O)CO [3-0-β-D-Galacto-pyranosyl-D-Arabinose] | no | no | – | –
Tween 40 | no | no | – | –
OC[C@H]1O[C@H](OC[C@H]2O[C@H](OC[C@H]3O[C@H](O[C@]4(CO)O[C@H](CO)[C@@H](O)[C@@H]4O)[C@H](O)[C@@H](O)[C@@H]3O)[C@H](O)[C@@H](O)[C@H]2O)[C@H](O)[C@@H](O)[C@H]1O [Stachyose] | no | no | – | –
OC[C@@H](O)[C@@H](O[C@H]1O[C@H](CO)[C@@H](O)[C@H](O)[C@H]1O)[C@H](O)[C@@H](O)CO [Maltitol] | no | no | – | –
CC(O)(CC(=O)O)C(=O)O (stereo not shown) [Citramalic Acid] | no | – | – | no
OC[C@H]1O[C@@H](Oc2ccc(O)cc2)[C@H](O)[C@@H](O)[C@@H]1O [Arbutin] | no | no | – | –
OC[C@H]1O[C@@H](O[C@@H]2[C@@H](CO)OC(O)(CO)[C@H]2O)[C@H](O)[C@@H](O)[C@H]1O (mixture of isomers) [Lactulose] | no | – | – | no
O=C(O)[C@]1(O)C[C@@H](O)[C@@H](O)[C@H](O)C1 [Quinic Acid] | no | – | – | no
OC[C@@H](O)[C@H](O)[C@H](O)[C@@H](O)CO [Dulcitol] | no | – | – | no
OC[C@@H](O)[C@H](O)[C@@H](O)CO [Xylitol] | no | – | – | no
O=C[C@H](O)[C@H](O)[C@@H](O)CO [L-Lyxose] | no | – | – | no
OC[C@@H](O)[C@@H](O)[C@H](O)[C@@H](O)CO [D-Sorbitol] | yes | – | can metabolize | no
O=C[C@H](O)[C@H](O)[C@H](O)CO [D-Ribose] | no | – | – | no
C[C@H](N)C(N)=O [L-Alaninamide] | yes | no | can metabolize | –
O=C(O)[C@@H](O)[C@H](O)C(=O)O [D-Tartaric Acid] | no | – | – | –
CO[C@@H]1O[C@H](CO)[C@@H](O)[C@H](O)[C@H]1O [β-Methyl-D-Glucoside] | no | no | – | –
CC(O)CC(=O)O (stereo not drawn) [β-Hydroxy Butyric Acid] | no | – | – | no
O=C(O)[C@H](O)[C@@H](O)[C@H](O)[C@H](O)CO[C@H]1O[C@H](CO)[C@H](O)[C@H](O)[C@H]1O [Melibionic Acid] | no | no | – | –
